ChEMBL document CHEMBL1649524, “Resistance selection studies comparing the activity of razupenem (PTZ601) to vancomycin and linezolid against eight methicillin-resistant and two methicillin-susceptible Staphylococcus aureus strains” (2009)
Values after ≈ are worked out from the molar mass of the structure shown.

Experiments:
Format in all cases: functional
Staphylococcus aureus [1] = test: Antimicrobial activity against heterogeneous vancomycin-intermediate Staphylococcus aureus 168 after 50 passages by macrodilution method
Staphylococcus aureus [2] = test: Antimicrobial activity against heterogeneous vancomycin-intermediate Staphylococcus aureus 873 after 50 passages by macrodilution method
Staphylococcus aureus [3] = test: Antimicrobial activity against vancomycin-intermediate Staphylococcus aureus 1287 after 50 passages by macrodilution method
Staphylococcus aureus [4] = test: Antimicrobial activity against methicillin-resistant Staphylococcus aureus 525 after 50 passages by macrodilution method
Staphylococcus aureus [5] = test: Antimicrobial activity against methicillin-resistant Staphylococcus aureus 547 after 48 passages by macrodilution method
Staphylococcus aureus [6] = test: Antimicrobial activity against methicillin-susceptible Staphylococcus aureus 543 after 15 passages by macrodilution method
Staphylococcus aureus [7] = test: Antimicrobial activity against vancomycin-resistant Staphylococcus aureus 510 after 50 passages by macrodilution method
Staphylococcus aureus [8] = test: Antimicrobial activity against vancomycin-resistant Staphylococcus aureus 509 after 28 passages by macrodilution method
Staphylococcus aureus [9] = test: Antimicrobial activity against vancomycin-intermediate Staphylococcus aureus 1287 measured after 10 antibiotic-free subculturing by macrodilution method
Staphylococcus aureus [10] = test: Antimicrobial activity against methicillin-susceptible Staphylococcus aureus 543 measured after 10 antibiotic-free subculturing by macrodilution method
Staphylococcus aureus [11] = test: Antimicrobial activity against vancomycin-resistant Staphylococcus aureus 509 measured after 10 antibiotic-free subculturing by macrodilution method
Staphylococcus aureus [12] = test: Antimicrobial activity against vancomycin-intermediate Staphylococcus aureus 1287 measured on day 5 by macrodilution method; settings: Staphylococcus aureus, 1287, 120 h
Staphylococcus aureus [13] = test: Antimicrobial activity against heterogeneous vancomycin-intermediate Staphylococcus aureus 168 measured on day 10 by macrodilution method; settings: Staphylococcus aureus, 168, 240 h
Staphylococcus aureus [14] = test: Antimicrobial activity against vancomycin-intermediate Staphylococcus aureus 1287 measured on day 10 by macrodilution method; settings: Staphylococcus aureus, 1287, 240 h
Staphylococcus aureus [15] = test: Antimicrobial activity against methicillin-susceptible Staphylococcus aureus 543 measured on day 10 by macrodilution method; settings: Staphylococcus aureus, 543, 240 h
Staphylococcus aureus [16] = test: Antimicrobial activity against heterogeneous vancomycin-intermediate Staphylococcus aureus 168 measured on day 15 by macrodilution method; settings: Staphylococcus aureus, 168, 360 h
Staphylococcus aureus [17] = test: Antimicrobial activity against vancomycin-intermediate Staphylococcus aureus 1287 measured on day 15 by macrodilution method; settings: Staphylococcus aureus, 1287, 360 h
Staphylococcus aureus [18] = test: Antimicrobial activity against methicillin-resistant Staphylococcus aureus 525 measured on day 15 by macrodilution method; settings: Staphylococcus aureus, 525, 360 h
Staphylococcus aureus [19] = test: Antimicrobial activity against methicillin-resistant Staphylococcus aureus 547 measured on day 15 by macrodilution method; settings: Staphylococcus aureus, 547, 360 h
Staphylococcus aureus [20] = test: Antimicrobial activity against methicillin-susceptible Staphylococcus aureus 540 measured on day 15 by macrodilution method; settings: Staphylococcus aureus, 540, 360 h
Staphylococcus aureus [21] = test: Antimicrobial activity against methicillin-susceptible Staphylococcus aureus 543 measured on day 15 by macrodilution method; settings: Staphylococcus aureus, 543, 360 h
Staphylococcus aureus [22] = test: Antimicrobial activity against heterogeneous vancomycin-intermediate Staphylococcus aureus 168 measured on day 20 by macrodilution method; settings: Staphylococcus aureus, 168, 480 h
Staphylococcus aureus [23] = test: Antimicrobial activity against vancomycin-intermediate Staphylococcus aureus 1287 measured on day 20 by macrodilution method; settings: Staphylococcus aureus, 1287, 480 h
Staphylococcus aureus [24] = test: Antimicrobial activity against methicillin-resistant Staphylococcus aureus 525 measured on day 20 by macrodilution method; settings: Staphylococcus aureus, 525, 480 h
Staphylococcus aureus [25] = test: Antimicrobial activity against methicillin-resistant Staphylococcus aureus 547 measured on day 20 by macrodilution method; settings: Staphylococcus aureus, 547, 480 h
Staphylococcus aureus [26] = test: Antimicrobial activity against methicillin-susceptible Staphylococcus aureus 540 measured on day 20 by macrodilution method; settings: Staphylococcus aureus, 540, 480 h
Staphylococcus aureus [27] = test: Antimicrobial activity against vancomycin-resistant Staphylococcus aureus 510 measured on day 20 by macrodilution method; settings: Staphylococcus aureus, 510, 480 h
Staphylococcus aureus [28] = test: Antimicrobial activity against vancomycin-resistant Staphylococcus aureus 509 measured on day 20 by macrodilution method; settings: Staphylococcus aureus, 509, 480 h
Staphylococcus aureus [29] = test: Antimicrobial activity against heterogeneous vancomycin-intermediate Staphylococcus aureus 168 measured on day 25 by macrodilution method; settings: Staphylococcus aureus, 168, 600 h
Staphylococcus aureus [30] = test: Antimicrobial activity against vancomycin-intermediate Staphylococcus aureus 1287 measured on day 25 by macrodilution method; settings: Staphylococcus aureus, 1287, 600 h
Staphylococcus aureus [31] = test: Antimicrobial activity against methicillin-resistant Staphylococcus aureus 525 measured on day 25 by macrodilution method; settings: Staphylococcus aureus, 525, 600 h
Staphylococcus aureus [32] = test: Antimicrobial activity against methicillin-resistant Staphylococcus aureus 547 measured on day 25 by macrodilution method; settings: Staphylococcus aureus, 547, 600 h
Staphylococcus aureus [33] = test: Antimicrobial activity against methicillin-susceptible Staphylococcus aureus 540 measured on day 25 by macrodilution method; settings: Staphylococcus aureus, 540, 600 h
Staphylococcus aureus [34] = test: Antimicrobial activity against vancomycin-resistant Staphylococcus aureus 510 measured on day 25 by macrodilution method; settings: Staphylococcus aureus, 510, 600 h
Staphylococcus aureus [35] = test: Antimicrobial activity against vancomycin-resistant Staphylococcus aureus 509 measured on day 25 by macrodilution method; settings: Staphylococcus aureus, 509, 600 h
Staphylococcus aureus [36] = test: Antimicrobial activity against heterogeneous vancomycin-intermediate Staphylococcus aureus 873 measured on day 30 by macrodilution method
Staphylococcus aureus [37] = test: Antimicrobial activity against vancomycin-intermediate Staphylococcus aureus 1287 measured on day 30 by macrodilution method
Staphylococcus aureus [38] = test: Antimicrobial activity against methicillin-resistant Staphylococcus aureus 547 measured on day 30 by macrodilution method
Staphylococcus aureus [39] = test: Antimicrobial activity against methicillin-susceptible Staphylococcus aureus 540 measured on day 30 by macrodilution method
Staphylococcus aureus [40] = test: Antimicrobial activity against vancomycin-resistant Staphylococcus aureus 510 measured on day 30 by macrodilution method
Staphylococcus aureus [41] = test: Antimicrobial activity against heterogeneous vancomycin-intermediate Staphylococcus aureus 168 measured on day 35 by macrodilution method
Staphylococcus aureus [42] = test: Antimicrobial activity against heterogeneous vancomycin-intermediate Staphylococcus aureus 873 measured on day 35 by macrodilution method
Staphylococcus aureus [43] = test: Antimicrobial activity against vancomycin-intermediate Staphylococcus aureus 1287 measured on day 35 by macrodilution method
Staphylococcus aureus [44] = test: Antimicrobial activity against methicillin-resistant Staphylococcus aureus 525 measured on day 35 by macrodilution method
Staphylococcus aureus [45] = test: Antimicrobial activity against methicillin-resistant Staphylococcus aureus 547 measured on day 35 by macrodilution method
Staphylococcus aureus [46] = test: Antimicrobial activity against methicillin-susceptible Staphylococcus aureus 540 measured on day 35 by macrodilution method
Staphylococcus aureus [47] = test: Antimicrobial activity against vancomycin-resistant Staphylococcus aureus 510 measured on day 35 by macrodilution method
Staphylococcus aureus [48] = test: Antimicrobial activity against heterogeneous vancomycin-intermediate Staphylococcus aureus 168 measured on day 40 by macrodilution method
Staphylococcus aureus [49] = test: Antimicrobial activity against heterogeneous vancomycin-intermediate Staphylococcus aureus 873 measured on day 40 by macrodilution method
Staphylococcus aureus [50] = test: Antimicrobial activity against vancomycin-intermediate Staphylococcus aureus 1287 measured on day 40 by macrodilution method
Staphylococcus aureus [51] = test: Antimicrobial activity against methicillin-resistant Staphylococcus aureus 525 measured on day 40 by macrodilution method
Staphylococcus aureus [52] = test: Antimicrobial activity against methicillin-resistant Staphylococcus aureus 547 measured on day 40 by macrodilution method
Staphylococcus aureus [53] = test: Antimicrobial activity against vancomycin-resistant Staphylococcus aureus 509 measured on day 40 by macrodilution method
Staphylococcus aureus [54] = test: Antimicrobial activity against heterogeneous vancomycin-intermediate Staphylococcus aureus 168 measured on day 45 by macrodilution method
Staphylococcus aureus [55] = test: Antimicrobial activity against heterogeneous vancomycin-intermediate Staphylococcus aureus 873 measured on day 45 by macrodilution method
Staphylococcus aureus [56] = test: Antimicrobial activity against vancomycin-intermediate Staphylococcus aureus 1287 measured on day 45 by macrodilution method
Staphylococcus aureus [57] = test: Antimicrobial activity against methicillin-resistant Staphylococcus aureus 525 measured on day 45 by macrodilution method
Staphylococcus aureus [58] = test: Antimicrobial activity against methicillin-resistant Staphylococcus aureus 547 measured on day 45 by macrodilution method
Staphylococcus aureus [59] = test: Antimicrobial activity against heterogeneous vancomycin-intermediate Staphylococcus aureus 168 measured on day 50 by macrodilution method
Staphylococcus aureus [60] = test: Antimicrobial activity against heterogeneous vancomycin-intermediate Staphylococcus aureus 873 measured on day 50 by macrodilution method
Staphylococcus aureus [61] = test: Antimicrobial activity against vancomycin-intermediate Staphylococcus aureus 1287 measured on day 50 by macrodilution method
Staphylococcus aureus [62] = test: Antimicrobial activity against methicillin-resistant Staphylococcus aureus 525 measured on day 50 by macrodilution method
Staphylococcus aureus [63] = test: Antimicrobial activity against vancomycin-resistant Staphylococcus aureus 510 measured on day 50 by macrodilution method

CC(=O)NC[C@H]1CN(c2ccc(N3CCOCC3)c(F)c2)C(=O)O1 [LINEZOLID]
MIC (Staphylococcus aureus [1]): 16 µg/mL (≈ 47.4 µM)
MIC (Staphylococcus aureus [2]): 8 µg/mL (≈ 23.7 µM)
MIC (Staphylococcus aureus [3]): 16 µg/mL (≈ 47.4 µM)
MIC (Staphylococcus aureus [4]): 16 µg/mL (≈ 47.4 µM)
MIC (Staphylococcus aureus [5]): 32 µg/mL (≈ 94.9 µM)
MIC (Staphylococcus aureus [6]): 32 µg/mL (≈ 94.9 µM)
MIC (Staphylococcus aureus [7]): 16 µg/mL (≈ 47.4 µM)
MIC (Staphylococcus aureus [8]): 16 µg/mL (≈ 47.4 µM)
MIC (Staphylococcus aureus [9]): 8 µg/mL (≈ 23.7 µM)
MIC (Staphylococcus aureus [10]): 32 µg/mL (≈ 94.9 µM)
MIC (Staphylococcus aureus [11]): 32 µg/mL (≈ 94.9 µM)
MIC (Staphylococcus aureus [12]): 8 µg/mL (≈ 23.7 µM)
MIC (Staphylococcus aureus [13]): 8 µg/mL (≈ 23.7 µM)
MIC (Staphylococcus aureus [14]): 8 µg/mL (≈ 23.7 µM)
MIC (Staphylococcus aureus [15]): 8 µg/mL (≈ 23.7 µM)
MIC (Staphylococcus aureus [16]): 8 µg/mL (≈ 23.7 µM)
MIC (Staphylococcus aureus [17]): 8 µg/mL (≈ 23.7 µM)
MIC (Staphylococcus aureus [18]): 16 µg/mL (≈ 47.4 µM)
MIC (Staphylococcus aureus [19]): 8 µg/mL (≈ 23.7 µM)
MIC (Staphylococcus aureus [20]): 16 µg/mL (≈ 47.4 µM)
MIC (Staphylococcus aureus [21]): 32 µg/mL (≈ 94.9 µM)
MIC (Staphylococcus aureus [22]): 8 µg/mL (≈ 23.7 µM)
MIC (Staphylococcus aureus [23]): 8 µg/mL (≈ 23.7 µM)
MIC (Staphylococcus aureus [24]): 16 µg/mL (≈ 47.4 µM)
MIC (Staphylococcus aureus [25]): 8 µg/mL (≈ 23.7 µM)
MIC (Staphylococcus aureus [26]): 16 µg/mL (≈ 47.4 µM)
MIC (Staphylococcus aureus [27]): 8 µg/mL (≈ 23.7 µM)
MIC (Staphylococcus aureus [28]): 8 µg/mL (≈ 23.7 µM)
MIC (Staphylococcus aureus [29]): 8 µg/mL (≈ 23.7 µM)
MIC (Staphylococcus aureus [30]): 8 µg/mL (≈ 23.7 µM)
MIC (Staphylococcus aureus [31]): 16 µg/mL (≈ 47.4 µM)
MIC (Staphylococcus aureus [32]): 16 µg/mL (≈ 47.4 µM)
MIC (Staphylococcus aureus [33]): 16 µg/mL (≈ 47.4 µM)
MIC (Staphylococcus aureus [34]): 8 µg/mL (≈ 23.7 µM)
MIC (Staphylococcus aureus [35]): 16 µg/mL (≈ 47.4 µM)
MIC (Staphylococcus aureus [36]): 16 µg/mL (≈ 47.4 µM)
MIC (Staphylococcus aureus [37]): 16 µg/mL (≈ 47.4 µM)
MIC (Staphylococcus aureus [38]): 16 µg/mL (≈ 47.4 µM)
MIC (Staphylococcus aureus [39]): 16 µg/mL (≈ 47.4 µM)
MIC (Staphylococcus aureus [40]): 8 µg/mL (≈ 23.7 µM)
MIC (Staphylococcus aureus [41]): 8 µg/mL (≈ 23.7 µM)
MIC (Staphylococcus aureus [42]): 8 µg/mL (≈ 23.7 µM)
MIC (Staphylococcus aureus [43]): 16 µg/mL (≈ 47.4 µM)
MIC (Staphylococcus aureus [44]): 16 µg/mL (≈ 47.4 µM)
MIC (Staphylococcus aureus [45]): 16 µg/mL (≈ 47.4 µM)
MIC (Staphylococcus aureus [46]): 32 µg/mL (≈ 94.9 µM)
MIC (Staphylococcus aureus [47]): 8 µg/mL (≈ 23.7 µM)
MIC (Staphylococcus aureus [48]): 8 µg/mL (≈ 23.7 µM)
MIC (Staphylococcus aureus [49]): 8 µg/mL (≈ 23.7 µM)
MIC (Staphylococcus aureus [50]): 16 µg/mL (≈ 47.4 µM)
MIC (Staphylococcus aureus [51]): 16 µg/mL (≈ 47.4 µM)
MIC (Staphylococcus aureus [52]): 16 µg/mL (≈ 47.4 µM)
MIC (Staphylococcus aureus [53]): 8 µg/mL (≈ 23.7 µM)
MIC (Staphylococcus aureus [54]): 8 µg/mL (≈ 23.7 µM)
MIC (Staphylococcus aureus [55]): 8 µg/mL (≈ 23.7 µM)
MIC (Staphylococcus aureus [56]): 16 µg/mL (≈ 47.4 µM)
MIC (Staphylococcus aureus [57]): 16 µg/mL (≈ 47.4 µM)
MIC (Staphylococcus aureus [58]): 32 µg/mL (≈ 94.9 µM)
MIC (Staphylococcus aureus [59]): 16 µg/mL (≈ 47.4 µM)
MIC (Staphylococcus aureus [60]): 8 µg/mL (≈ 23.7 µM)
MIC (Staphylococcus aureus [61]): 16 µg/mL (≈ 47.4 µM)
MIC (Staphylococcus aureus [62]): 16 µg/mL (≈ 47.4 µM)
MIC (Staphylococcus aureus [63]): 16 µg/mL (≈ 47.4 µM)
